In patent US8114850B2, “Antiproliferative activity of G-rich oligonucleotides and method of using same to bind to nucleolin” (Advanced Cancer Therapeutics, LLC, priority 1999, dated 2012):

Experiments:
[1] = biological target: T1, GRO-binding protein/nucleolin (HeLa nuclear extracts) (Homo sapiens, UniProt P19338); experiment: UV cross-linking of oligonucleotides to HeLa nuclear extracts; details: labeled oligonucleotide with HeLa nuclear extracts; FIG. 6C
T1 construct: HeLa nuclear extracts used in EMSAs were purchased from Promega Inc. (bandshift grade); host or cells: HeLa nuclear extract (bandshift grade), purchased
Description: For the UV crosslinking experiments, samples were incubated as described above (EMSA). They were then placed on ice and irradiated at 5 cm from the source using the “autocross link” function of a Stratagene UV Stratalinker. Following irradiation, samples were electrophoresed under denaturing conditions on a 8% polyacrylamide-SDS gel using a standard Tris glycine buffer and visualized by autoradiography.
To determine the approximate molecular weight of the protein involved in complex A, and to confirm that competition for this complex results from direct binding of the protein to oligonucleotides, a UV cross-linking study was conducted. 5′-Labeled oligonucleotides and HeLa nuclear extracts were incubated alone or in the presence of unlabeled competitor oligonucleotides.
The samples were then irradiated with UV light resulting in cross-link formation between protein residues and thymidines in the oligonucleotide. The protein was thus radiolabeled and could be detected on a SDS-polyacrylamide gel.

[2] = biological target: T2, 106 kDa nuclear protein (p106, GRO-binding protein/nucleolin) (Homo sapiens, UniProt P19338); experiment: Southwestern blot of HeLa nuclear extracts; details: 32P-labeled oligonucleotide, 4° C.; FIG. 6D
T2 construct: HeLa nuclear extracts used in EMSAs were purchased from Promega Inc. (bandshift grade); host or cells: HeLa nuclear extract (bandshift grade), purchased
Description: Nuclear extracts were electrophoresed on a 8% polyacrylamide-SDS gel and transferred to polyvinylidene difluoride (PVDF) membrane by electroblotting using a Tris glycine/methanol (10% v/v) buffer. Immobilized proteins were denatured and renatured by washing for thirty minutes at 4° C. with 6 M guanidine. HCl followed by washes in 1:1, 1:2 and 1:4 dilutions of 6M guanidine in HEPES binding buffer (25 mM HEPES pH 7.9, 4 mM KCl, 3 mM MgCl2). The membrane was blocked by washing for one hour in a 5% solution of non-fat dried milk (NDM) in binding buffer.
Hybridization of the labeled oligonucleotide (1-4×10^6 cpm) took place for two hours at 4° C. in HEPES binding buffer supplemented with 0.25% NDM, 0.05% Nonidet P […] salmon sperm DNA and […] of an unrelated, mixed sequence 35-mer oligonucleotide (5′-[…] CTTCCTTCCTCTCCA-3′SEQ ID No: 19). Membranes were washed in binding buffer and visualized by autoradiography.
The molecular weight of the nuclear protein was more accurately determined by Southwestern blotting. HeLa nuclear extracts were electrophoresed on an 8% polyacrylamide-SDS gel and transferred to a PVDF membrane. The membrane was blocked and cut into strips. Each strip was incubated at 4° C. with a 32P-labeled G-rich oligonucleotide in the presence of unrelated unlabeled double stranded and single stranded DNA to block non-specific binding.

[3] = Detection of G-quartets by UV thermal denaturation/renaturation; assay type: physicochemical; details: absorbance at 295 nm; FIG. 4
Description: Oligonucleotides were resuspended in Tm buffer (20 mM Tris HCl, pH 8.0, 140 mM KCl, 2.5 mM MgCl2) at a concentration such that A260=0.6 (molar concentrations ranged from […]). Samples were annealed by boiling for five minutes and allowing to cool slowly to room temperature and overnight incubation at 4° C. Thermal denaturation/renaturation experiments were carried out using an Amersham Pharmacia Biotech Ultrospec 2000 instrument equipped with a Peltier effect heated cuvette holder and temperature controller (Amersham Pharmacia Biotech). Absorbance at 295 nm was monitored over a temperature range of 25-95 or 20-90° C. at a heating/cooling rate of 0.5° C./min. To investigate the formation of G-quartet structures by the G-rich oligonucleotides, a U.V. melting technique described by […] et al. (1998) FEBS Lett. 435, 74-78 was used. This method relies on the fact that dissociation of G-quartets leads to a decrease in absorbance at 295 nm and is reported to give a more reliable indication of intramolecular G-quartet formation than measurement at 260 nm.

HeLa cells = experiment: MTT cell growth assay, HeLa cells; assay type: cell-based, human; details: 15 uM on day 1, half the initial dose on days 2-4; 3′-propylamino oligonucleotides; vs water control; FIG. 1C
Description: (§1) Cells were plated at low density ([…] cells per well, depending on cell line) in the appropriate serum-supplemented medium in 96-well plates (one plate per MTT assay time point) and grown under standard conditions of cell culture. The following day (day 1) oligonucleotide, or water as control, was added to the culture medium to give a final concentration of 15 uM. Further oligonucleotide, equivalent to half the initial dose, was added to the culture medium on days two, three and four.
(§2) Cells were assayed using the MTT assay (Morgan (1998) Methods. Mol. Biol. 79, 179-183) on days one, three, five, seven and nine after plating. The culture medium was not changed throughout the duration of the experiment (which was the time required for untreated cells to grow to confluence). Experiments were performed in triplicate and bars represent the standard error of the data.

DU145 cells = experiment: MTT cell growth assay, DU145 cells; assay type: cell-based, human; details: 15 uM on day 1, half the initial dose on days 2-4; 3′-propylamino oligonucleotides; vs water control; FIG. 1A
Description: as §1, §2

[4] = biological target: T1, GRO-binding protein/nucleolin (HeLa nuclear extracts); experiment: EMSA of 32P-labeled oligonucleotides with HeLa nuclear extracts; details: 32P-labeled oligonucleotide, FIG. 6A
Description: Oligonucleotides were 5′-labeled with 32p using T4 kinase. Labeled oligonucleotide (final concentration 1 nM, approximately 50,000 cpm) was preincubated for thirty minutes at 37° C. either alone or in the presence of unlabeled competitor oligonucleotide. Nuclear extracts were added, and the sample was incubated a further thirty minutes at 37° C. Both the preincubation and binding reactions were carried out in Buffer A (20 mM Tris. HCl pH 7.4, 140 mM KCl, 2.5 mM MgCl2, 1 mM dithiothreitol, 0.2 mM phenylmethyl sulfonyl fluoride and 8% (v/v) glycerol). Electrophoresis was carried out using 5% polyacrylamide gels in TBE buffer (90 mM Tris borate, 2 mM EDTA).
HeLa nuclear extracts used in EMSAs were purchased from Promega Inc. (bandshift grade). Nuclear and cytoplasmic extracts from MDA-MB-231 cells were prepared using the protocol described in F. M. Ausubel et al. Ausubel et al. (Eds.) (1996) Current Protocols in Molecular Biology, Wiley, N.Y., Section 12.1. Plasma membrane proteins were prepared from MDA-MB-231 cells using a method previously described. Yao et al. (1996) Biochemical Pharmacology 51, 431-436; Naito et al. (1988) J. Biol. Chem. 263, 11887-11891.
To investigate further the mechanism of the growth modulatory effects, binding of the oligonucleotides to cellular proteins was examined. […]

T1 sequence (P19338 whole entry): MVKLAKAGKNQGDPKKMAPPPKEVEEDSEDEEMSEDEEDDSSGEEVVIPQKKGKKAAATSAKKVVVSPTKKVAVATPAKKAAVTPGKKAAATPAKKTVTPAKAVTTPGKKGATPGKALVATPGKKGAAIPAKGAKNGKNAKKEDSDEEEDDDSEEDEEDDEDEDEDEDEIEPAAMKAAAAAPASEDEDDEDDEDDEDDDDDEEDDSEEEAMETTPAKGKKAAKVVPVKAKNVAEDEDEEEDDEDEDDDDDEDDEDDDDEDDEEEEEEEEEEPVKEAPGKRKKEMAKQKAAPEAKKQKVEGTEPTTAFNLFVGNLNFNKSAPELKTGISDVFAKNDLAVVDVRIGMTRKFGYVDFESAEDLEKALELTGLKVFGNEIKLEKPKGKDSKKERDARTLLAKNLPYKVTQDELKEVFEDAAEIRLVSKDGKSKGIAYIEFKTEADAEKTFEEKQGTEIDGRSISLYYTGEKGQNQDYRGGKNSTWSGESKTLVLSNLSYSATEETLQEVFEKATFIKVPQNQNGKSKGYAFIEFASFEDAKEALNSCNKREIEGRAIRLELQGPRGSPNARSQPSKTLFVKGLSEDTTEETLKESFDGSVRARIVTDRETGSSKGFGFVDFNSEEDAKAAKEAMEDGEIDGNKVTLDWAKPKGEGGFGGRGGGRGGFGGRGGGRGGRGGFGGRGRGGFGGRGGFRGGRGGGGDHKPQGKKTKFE
T2 sequence (P19338 whole entry): as above

Row | Substance | UV cross-linked protein complex (approximately 100 kDa) [1] | hybridization to protein band at 106 kDa (Southwestern blot) [2] | G-quartet formation (UV annealing curve) [3] | growth of HeLa cells (MTT) (HeLa cells) | growth of DU145 cells (MTT) (DU145 cells) | protein-oligonucleotide complex band (EMSA) [4]
1 | 5′-TTTGGTGGTGGTGG TTGTGGTGGTGGTGG-3′ [GR029A] | formed this approximately 100 kDa complex | hybridized to a single protein band at 106 kDa | clearly indicating the presence of G-quartets | modulated proliferation | modulated proliferation | intense
2 | 5′-GTTGTTTGG GGTGGT-3′ (GTTGTTTGGGGTGGT; DNA, backbone not given here; further chemistry not fully specified) [GRO15A] | crosslinked to a protein | hybridized to a single protein band at 106 kDa | suggestive of G-quartet formation | modulated proliferation | modulated proliferation | intense
